Measured values as given in ChEMBL document CHEMBL5096206, “From natural products to HDAC inhibitors: An overview of drug discovery and design strategy” (Bioorg Med Chem, 2021).
Values after ≈ are worked out from the molar mass of the structure shown.

Assays:
Histone deacetylase 4 [1] = target: T1, Histone deacetylase 4 (Homo sapiens, UniProt P56524); assay: Inhibition of HDAC4 in human HeLa cells incubated for 1 hr by mass spectrometry method; assay type: cell-based
HT-29 = assay: Inhibition of colony formation in human HT-29 cells at 0.5 to 5 uM measured after 10 days by methylene blue staining based analysis relative to control; assay type: functional; settings: dose 0.5-5 µM, time 10 day
[2] = target: T2, Protein deacetylase HDAC6 (Homo sapiens, UniProt Q9UBN7); assay: Inhibition of recombinant HDAC6 (unknown origin) using AMC-K(Ac)GL as substrate by fluorescence based analysis
T2 sequence (Q9UBN7 whole entry): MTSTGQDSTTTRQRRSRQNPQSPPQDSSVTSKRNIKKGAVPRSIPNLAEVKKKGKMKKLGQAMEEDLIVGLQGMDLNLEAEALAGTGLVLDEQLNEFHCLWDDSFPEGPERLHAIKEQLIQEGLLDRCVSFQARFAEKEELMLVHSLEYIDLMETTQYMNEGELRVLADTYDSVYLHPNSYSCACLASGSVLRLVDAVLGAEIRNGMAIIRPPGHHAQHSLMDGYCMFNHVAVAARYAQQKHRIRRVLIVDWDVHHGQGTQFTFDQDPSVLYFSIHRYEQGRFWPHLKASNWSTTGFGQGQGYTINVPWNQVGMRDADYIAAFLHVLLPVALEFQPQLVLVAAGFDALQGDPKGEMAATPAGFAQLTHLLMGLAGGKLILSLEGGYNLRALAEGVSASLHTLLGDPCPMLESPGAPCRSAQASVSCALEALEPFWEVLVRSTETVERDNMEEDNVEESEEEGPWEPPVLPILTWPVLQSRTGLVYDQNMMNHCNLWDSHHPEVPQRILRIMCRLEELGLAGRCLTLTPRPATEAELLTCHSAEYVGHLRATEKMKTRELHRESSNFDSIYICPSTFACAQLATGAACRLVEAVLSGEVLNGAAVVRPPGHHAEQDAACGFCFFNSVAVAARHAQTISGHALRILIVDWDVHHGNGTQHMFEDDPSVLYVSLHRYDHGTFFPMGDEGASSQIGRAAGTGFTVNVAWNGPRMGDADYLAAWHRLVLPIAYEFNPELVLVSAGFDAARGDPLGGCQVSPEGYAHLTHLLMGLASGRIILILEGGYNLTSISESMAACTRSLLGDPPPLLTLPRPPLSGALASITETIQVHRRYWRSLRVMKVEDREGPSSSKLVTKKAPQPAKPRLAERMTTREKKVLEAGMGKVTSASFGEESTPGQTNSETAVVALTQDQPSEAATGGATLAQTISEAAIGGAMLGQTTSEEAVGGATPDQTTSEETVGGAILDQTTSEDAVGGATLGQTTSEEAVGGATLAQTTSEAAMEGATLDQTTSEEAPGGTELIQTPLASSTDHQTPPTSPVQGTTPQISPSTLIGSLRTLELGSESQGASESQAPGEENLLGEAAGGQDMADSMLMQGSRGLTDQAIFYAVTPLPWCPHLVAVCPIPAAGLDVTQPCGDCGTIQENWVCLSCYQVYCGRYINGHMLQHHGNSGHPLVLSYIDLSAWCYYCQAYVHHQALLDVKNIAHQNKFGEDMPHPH

Histone deacetylase 1 [3] = target: T3, Histone deacetylase 1 (Homo sapiens, UniProt Q13547); assay: Inhibition of recombinant HDAC1 (unknown origin) using AMC-K(Ac)GL as substrate by fluorescence based analysis
T3 sequence (Q13547 whole entry): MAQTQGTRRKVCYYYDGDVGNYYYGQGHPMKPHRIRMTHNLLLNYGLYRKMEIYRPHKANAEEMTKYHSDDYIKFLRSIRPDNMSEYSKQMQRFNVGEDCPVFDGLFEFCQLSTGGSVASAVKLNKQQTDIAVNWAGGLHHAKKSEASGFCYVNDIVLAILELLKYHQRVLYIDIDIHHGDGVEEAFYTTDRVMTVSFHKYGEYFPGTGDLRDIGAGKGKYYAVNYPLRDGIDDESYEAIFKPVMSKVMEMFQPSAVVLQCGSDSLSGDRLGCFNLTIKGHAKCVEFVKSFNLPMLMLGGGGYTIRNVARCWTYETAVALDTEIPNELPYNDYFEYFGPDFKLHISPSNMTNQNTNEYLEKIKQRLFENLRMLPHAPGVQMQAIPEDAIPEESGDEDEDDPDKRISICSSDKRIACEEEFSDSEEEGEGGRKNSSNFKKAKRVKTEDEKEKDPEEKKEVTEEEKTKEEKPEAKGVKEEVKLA

[4] = Inhibition of HDAC in Sprague-Dawley rat hepatocytes using Fluor de Lys as substrate incubated for 15 mins by fluorometric assay; assay type: cell-based; settings: Hepatocyte, 0.25 h
MCF7 [5] = assay: cells; settings: Homo sapiens, MCF7, 72 h
Description: Antiproliferative activity against human MCF7 cells assessed as cell growth inhibition measured after 72 hrs by MTT assay

HepG2 [6] = assay: cells; settings: Homo sapiens, HepG2, 72 h
Description: Antiproliferative activity against human HepG2 cells assessed as cell growth inhibition measured after 72 hrs by MTT assay

HepG2 [7] = assay: Antiproliferative activity against human HepG2 cells assessed as cell growth inhibition; assay type: functional, cell-based
Huh-7 = assay: Antiproliferative activity against human Huh-7 cells assessed as cell growth inhibition; assay type: functional, cell-based
[8] = Cytotoxicity against human CCD-18Co assessed as cell growth inhibition; assay type: toxicity, cell-based; settings: CCD-18Co cells
Hep 3B2 = assay: Antiproliferative activity against human Hep3B cells assessed as cell growth inhibition; assay type: functional, cell-based
MCF7 [9] = assay: cells; settings: Homo sapiens
MCF10 = assay: Antiproliferative activity against human MCF10 cells assessed as cell growth inhibition; assay type: functional, cell-based
HA22T cell line = assay: Antiproliferative activity against human HA22T cell line assessed as cell growth inhibition; assay type: functional, cell-based
AGS = assay: Antiproliferative activity against human AGS cells assessed as cell growth inhibition; assay type: functional, cell-based
Histone deacetylase 1 [10] = target: T3, Histone deacetylase 1; assay: Inhibition of HDAC1 in human MCF7 cells using TMB as substrate incubated for 2 hrs by ELISA analysis; assay type: cell-based
Histone deacetylase 2 [11] = target: T4, Histone deacetylase 2 (Homo sapiens, UniProt Q92769); assay: Inhibition of HDAC2 in human MCF7 cells using TMB as substrate incubated for 2 hrs by ELISA analysis; assay type: cell-based
T4 sequence (Q92769 whole entry): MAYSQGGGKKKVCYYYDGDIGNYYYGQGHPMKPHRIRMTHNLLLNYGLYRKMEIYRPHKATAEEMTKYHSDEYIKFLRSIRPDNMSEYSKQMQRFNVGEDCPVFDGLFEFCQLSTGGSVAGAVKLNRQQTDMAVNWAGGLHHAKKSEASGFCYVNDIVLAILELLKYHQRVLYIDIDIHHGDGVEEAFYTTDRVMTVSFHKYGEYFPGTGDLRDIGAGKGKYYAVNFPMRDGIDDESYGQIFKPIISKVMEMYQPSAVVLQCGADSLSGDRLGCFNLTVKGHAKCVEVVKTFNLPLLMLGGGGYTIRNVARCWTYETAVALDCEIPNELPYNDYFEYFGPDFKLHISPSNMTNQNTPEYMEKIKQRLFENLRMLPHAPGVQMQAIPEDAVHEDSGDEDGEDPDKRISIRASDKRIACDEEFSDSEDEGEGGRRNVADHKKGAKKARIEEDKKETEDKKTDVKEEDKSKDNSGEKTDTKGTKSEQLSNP

Tubulin beta = assay: Inhibition of beta-tubulin polymerization in human MCF7 cells using TMB as substrate incubated for 2 hrs by spectrophotometry analysis; assay type: cell-based
P388 = assay: Cytotoxicity against mouse P388 cells assessed as cell growth inhibition; assay type: functional, cell-based
MDA-MB-231 = assay: Antiproliferative activity against human MDA-MB-231 cells assessed as cell growth inhibition; assay type: functional, cell-based
BT-20 = assay: Antiproliferative activity against human BT-20 cells assessed as cell growth inhibition; assay type: functional, cell-based
Histone deacetylase 2 [12] = target: T4, Histone deacetylase 2; assay: Inhibition of human recombinant full-length His-tagged HDAC2 expressed in baculovirus expression system incubated for 2 hrs by fluorescence based analysis
Histone deacetylase 1 [13] = target: T3, Histone deacetylase 1; assay: Inhibition of human recombinant His-tagged HDAC1 expressed in baculovirus expression system incubated for 2 hrs by fluorescence based analysis
T47D [14] = assay: Antiproliferative activity against human T47D cells assessed as cell growth inhibition; assay type: functional, cell-based
Histone deacetylase 8 = Histone deacetylase 8 (Homo sapiens, UniProt Q9BY41); assay: Inhibition of human recombinant His-tagged HDAC8 expressed in Escherichia coli incubated for 2 hrs by fluorescence based analysis
Histone deacetylase 3 = Histone deacetylase 3 (Homo sapiens, UniProt O15379); assay: Inhibition of human recombinant His-tagged HDAC3 expressed in baculovirus expression system incubated for 2 hrs by fluorescence based analysis
Histone deacetylase 3, sequence (O15379 whole entry): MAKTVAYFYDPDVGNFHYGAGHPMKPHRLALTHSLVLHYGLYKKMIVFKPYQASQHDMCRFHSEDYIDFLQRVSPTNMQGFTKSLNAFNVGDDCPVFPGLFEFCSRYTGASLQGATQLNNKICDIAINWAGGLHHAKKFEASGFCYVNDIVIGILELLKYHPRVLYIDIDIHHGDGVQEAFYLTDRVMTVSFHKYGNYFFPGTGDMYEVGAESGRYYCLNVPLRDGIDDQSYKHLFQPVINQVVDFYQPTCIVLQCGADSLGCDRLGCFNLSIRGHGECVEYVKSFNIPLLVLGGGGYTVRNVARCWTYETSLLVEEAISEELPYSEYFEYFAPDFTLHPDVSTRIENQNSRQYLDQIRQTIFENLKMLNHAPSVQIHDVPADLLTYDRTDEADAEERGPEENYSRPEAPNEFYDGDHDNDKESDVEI

MCF7 [15] = assay: cells; settings: Homo sapiens; remark: listed apart in the source
Description: Antiproliferative activity against human MCF7 cells assessed as cell growth inhibition by SRB assay

BT-474 = assay: Antiproliferative activity against human BT-474 cells assessed as cell growth inhibition by SRB assay; assay type: functional, cell-based
T47D [16] = assay: Antiproliferative activity against human T47D cells assessed as cell growth inhibition by burton method; assay type: functional, cell-based
Histone deacetylase 1 [17] = target: T3, Histone deacetylase 1; assay: Inhibition of HDAC1 (unknown origin)
Histone deacetylase 4 [18] = target: T1, Histone deacetylase 4; assay: Inhibition of HDAC4 (unknown origin)
[19] = target: T2, Protein deacetylase HDAC6; assay: Inhibition of HDAC6 (unknown origin)
[20] = Half life in mouse; assay type: ADME, organism-based; settings: in vivo
Histone deacetylase 5 = Histone deacetylase 5 (Homo sapiens, UniProt Q9UQL6); assay: Inhibition of HDAC5 (unknown origin)
Histone deacetylase 5, sequence (Q9UQL6 whole entry): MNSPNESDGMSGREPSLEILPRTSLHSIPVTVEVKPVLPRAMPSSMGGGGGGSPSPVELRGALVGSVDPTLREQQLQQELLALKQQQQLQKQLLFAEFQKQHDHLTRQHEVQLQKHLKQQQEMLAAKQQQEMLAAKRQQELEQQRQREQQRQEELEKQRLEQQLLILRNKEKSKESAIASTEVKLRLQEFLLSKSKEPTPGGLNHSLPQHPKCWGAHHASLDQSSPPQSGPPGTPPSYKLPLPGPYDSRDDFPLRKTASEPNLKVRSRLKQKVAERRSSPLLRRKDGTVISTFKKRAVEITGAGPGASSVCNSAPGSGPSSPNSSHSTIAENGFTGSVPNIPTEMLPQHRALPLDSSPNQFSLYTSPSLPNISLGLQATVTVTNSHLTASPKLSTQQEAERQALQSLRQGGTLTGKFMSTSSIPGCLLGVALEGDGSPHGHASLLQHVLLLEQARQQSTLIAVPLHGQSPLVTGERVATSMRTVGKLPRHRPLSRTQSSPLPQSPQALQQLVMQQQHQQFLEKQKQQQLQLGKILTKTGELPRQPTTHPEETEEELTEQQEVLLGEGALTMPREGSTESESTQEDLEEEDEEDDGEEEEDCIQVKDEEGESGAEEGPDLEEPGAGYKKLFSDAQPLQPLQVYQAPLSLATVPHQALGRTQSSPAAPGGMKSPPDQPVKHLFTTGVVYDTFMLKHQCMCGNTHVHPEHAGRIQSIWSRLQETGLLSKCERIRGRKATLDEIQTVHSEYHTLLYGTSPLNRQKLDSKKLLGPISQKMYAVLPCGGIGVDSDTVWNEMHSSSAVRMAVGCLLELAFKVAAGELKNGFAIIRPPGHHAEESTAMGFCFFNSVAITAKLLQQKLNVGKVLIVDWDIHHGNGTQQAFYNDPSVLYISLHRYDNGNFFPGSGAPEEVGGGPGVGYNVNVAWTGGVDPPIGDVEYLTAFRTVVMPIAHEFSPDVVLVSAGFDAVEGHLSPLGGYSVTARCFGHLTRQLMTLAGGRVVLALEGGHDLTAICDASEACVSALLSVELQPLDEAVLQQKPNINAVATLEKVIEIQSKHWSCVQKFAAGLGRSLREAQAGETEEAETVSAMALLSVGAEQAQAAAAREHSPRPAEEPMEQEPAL

T1 sequence (P56524 whole entry): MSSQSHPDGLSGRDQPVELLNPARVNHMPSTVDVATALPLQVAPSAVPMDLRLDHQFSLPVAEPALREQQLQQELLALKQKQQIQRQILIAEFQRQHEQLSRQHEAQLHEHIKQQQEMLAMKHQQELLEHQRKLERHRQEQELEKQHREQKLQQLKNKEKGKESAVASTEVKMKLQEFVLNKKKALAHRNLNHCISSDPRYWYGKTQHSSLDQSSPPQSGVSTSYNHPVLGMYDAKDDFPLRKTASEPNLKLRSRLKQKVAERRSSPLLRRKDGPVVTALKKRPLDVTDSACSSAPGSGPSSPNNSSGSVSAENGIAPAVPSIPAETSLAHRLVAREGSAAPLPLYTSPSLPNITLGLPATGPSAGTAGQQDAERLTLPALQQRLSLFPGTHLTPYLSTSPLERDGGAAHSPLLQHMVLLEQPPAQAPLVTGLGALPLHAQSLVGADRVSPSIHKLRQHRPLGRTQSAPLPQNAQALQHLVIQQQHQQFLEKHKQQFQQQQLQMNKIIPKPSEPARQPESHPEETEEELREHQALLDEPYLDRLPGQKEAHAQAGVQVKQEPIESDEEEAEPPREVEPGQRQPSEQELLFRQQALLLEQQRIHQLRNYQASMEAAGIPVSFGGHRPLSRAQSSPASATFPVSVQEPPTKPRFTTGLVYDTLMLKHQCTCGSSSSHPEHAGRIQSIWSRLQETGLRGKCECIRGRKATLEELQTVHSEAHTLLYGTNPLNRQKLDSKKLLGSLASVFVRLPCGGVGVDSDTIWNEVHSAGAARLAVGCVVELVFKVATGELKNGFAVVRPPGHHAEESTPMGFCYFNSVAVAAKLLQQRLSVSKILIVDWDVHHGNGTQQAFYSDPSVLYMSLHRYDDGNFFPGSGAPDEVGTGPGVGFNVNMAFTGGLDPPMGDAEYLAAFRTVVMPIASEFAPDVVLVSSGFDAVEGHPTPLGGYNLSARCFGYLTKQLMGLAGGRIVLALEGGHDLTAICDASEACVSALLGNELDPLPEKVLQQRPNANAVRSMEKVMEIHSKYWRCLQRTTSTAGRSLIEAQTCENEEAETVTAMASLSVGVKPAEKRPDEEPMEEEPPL

## C[C@@H](O)C(=O)CCCCC[C@@H]1NC(=O)[C@H]2CCCN2C(=O)[C@H](Cc2ccccc2)NC(=O)[C@H](Cc2ccccc2)NC1=O
Histone deacetylase 4 [1]
  IC50: 0.28 µM

## CC(C)(C)OC(=O)Nc1cccc(C(=O)/C=C/c2ccc(/C=C/C(=O)NO)cc2)c1
HT-29
  inhibition (INH): <=60%
[2]
  IC50: 0.01 µM
Histone deacetylase 1 [3]
  IC50: 2.9 µM

## CN(C)c1ccc(C(=O)NCCCCCC(=O)NO)cc1
[4]
  IC50: 0.024 µM

## CC[C@]1(C)NC(=O)[C@H](CCCCCC(=O)[C@@H](C)O)NC(=O)[C@H]2CC(C)(C)CN2C(=O)[C@H](Cc2ccccc2)NC1=O
Histone deacetylase 4 [1]
  IC50: 0.09 µM

## CC[C@]1(C)NC(=O)[C@H](CCCCCC(=O)[C@@H](C)O)NC(=O)[C@H]2CCCN2C(=O)[C@H](Cc2ccccc2)NC1=O
Histone deacetylase 4 [1]
  IC50: 0.05 µM

## C[C@H](O)C(=O)CCCCC[C@@H]1NC(=O)[C@H]2CCCN2C(=O)[C@H](Cc2ccccc2)NC(=O)C(C)(C)NC1=O
Histone deacetylase 4 [1]
  IC50: 0.33 µM

## C[C@@H](O)C(=O)CCCCC[C@@H]1NC(=O)[C@H]2CCCN2C(=O)[C@H](Cc2ccccc2)NC(=O)C(C)(C)NC1=O
Histone deacetylase 4 [1]
  IC50: 0.03 µM

## CC[C@@H]1NC(=O)[C@H](CCCCCC(=O)[C@H](C)O)NC(=O)[C@H]2CCCN2C(=O)[C@H](Cc2ccccc2)NC1=O
Histone deacetylase 4 [1]
  IC50: 1 µM

## O=C(/C=C/c1ccc([N+](=O)[O-])cc1)c1ccc(NC(=O)c2ccc(CN3C(=O)c4ccccc4C3=O)cc2)cc1
MCF7 [5]
  IC50: 9.78 µM
HepG2 [6]
  IC50: 15.8 µM

## CCC(=O)CCCCC[C@@H]1NC(=O)[C@H]2CCCCN2C(=O)[C@H]([C@@H](C)CC)NC(=O)[C@H](Cc2cc3ccccc3n2OC)NC1=O
HepG2 [7]
  IC50: 0.19 µM
Huh-7
  IC50: 0.19 µM
[8]
  IC50: 0.19 µM
Hep 3B2
  IC50: 0.19 µM
MCF7 [9]
  IC50: 0.19 µM
MCF10
  IC50: 0.19 µM
HA22T cell line
  IC50: 0.19 µM
AGS
  IC50: 0.19 µM

## Cc1c[nH]c([C@@H]2NC(=O)[C@H](CCCCCC(=O)[C@H](C)O)NC(=O)[C@H]3CCCN3C(=O)[C@H](Cc3ccccc3)NC2=O)n1
Histone deacetylase 4 [1]
  IC50: 350 µM

## COc1ccc(/C=C/C(=O)c2ccc(NC(=O)c3ccc(CN4C(=O)c5ccccc5C4=O)cc3)cc2)cc1
MCF7 [5]
  IC50: 2.41 µM
HepG2 [6]
  IC50: 1.87 µM

## COc1ccc(/C=C/C(=O)c2ccc(NC(=O)c3ccc(CN4C(=O)c5ccccc5C4=O)cc3)cc2)c(OC)c1
MCF7 [5]
  IC50: 2.09 µM
HepG2 [6]
  IC50: 1.75 µM

## O=C(/C=C/c1ccc(Cl)cc1)c1ccc(NC(=O)c2ccc(CN3C(=O)c4ccccc4C3=O)cc2)cc1
MCF7 [5]
  IC50: 4.11 µM
HepG2 [6]
  IC50: 3.21 µM

## O=C(/C=C/c1ccccc1)c1ccc(NC(=O)c2ccc(CN3C(=O)c4ccccc4C3=O)cc2)cc1
MCF7 [5]
  IC50: 14.4 µM
HepG2 [6]
  IC50: 12.9 µM

## O=C(/C=C/c1cc2ccc1CCc1ccc(cc1)CC2)c1ccc(NC(=O)c2ccc(CN3C(=O)c4ccccc4C3=O)cc2)cc1
MCF7 [5]
  IC50: 5.28 µM
HepG2 [6]
  IC50: 8.47 µM

## O=C(/C=C/c1cccc2ccccc12)c1ccc(NC(=O)c2ccc(CN3C(=O)c4ccccc4C3=O)cc2)cc1
MCF7 [5]
  IC50: 11.3 µM
HepG2 [6]
  IC50: 8.07 µM

## Cc1cc(/C=C/C(=O)c2ccc(NC(=O)c3ccc(CN4C(=O)c5ccccc5C4=O)cc3)cc2)cc(C)c1C
MCF7 [5]
  IC50: 1.88 µM
Histone deacetylase 1 [10]
  IC50: 0.22 µM
Histone deacetylase 2 [11]
  IC50: 0.43 µM
Tubulin beta
  IC50: 2.32 µM
HepG2 [6]
  IC50: 1.62 µM

## O=C(/C=C/C1Oc2ccccc2O1)c1ccc(NC(=O)c2ccc(CN3C(=O)c4ccccc4C3=O)cc2)cc1
MCF7 [5]
  IC50: 3.45 µM
HepG2 [6]
  IC50: 1.96 µM

## O=C(/C=C/c1ccccc1-c1ccco1)c1ccc(NC(=O)c2ccc(CN3C(=O)c4ccccc4C3=O)cc2)cc1
MCF7 [5]
  IC50: 5.44 µM
HepG2 [6]
  IC50: 9.05 µM

## C[C@H](O)C(=O)CCCCC[C@@H]1NC(=O)[C@H]2CCCN2C(=O)[C@H](Cc2ccccc2)NC(=O)C(C2CCCCC2)(C2CCCCC2)NC1=O
Histone deacetylase 4 [1]
  IC50: 0.67 µM

## C[C@@H](O)C(=O)CCCCC[C@@H]1NC(=O)[C@H]2CCCN2C(=O)[C@H](Cc2ccccc2)NC(=O)[C@H](n2ccc3ccccc32)NC1=O
Histone deacetylase 4 [1]
  IC50: 0.02 µM

## O=C(CCCCCNC(=O)c1cc2ccccc2[nH]1)NO
[4]
  IC50: 0.014 µM

## COc1ccc(/C=C\c2cc(OC)c(OC)c(OC)c2)cc1O [COMBRETASTATIN A4]
MCF7 [5]
  IC50: 4.85 µM

## O=C(NCCSSCCNC(=O)/C(Cc1ccc(O)c(Br)c1)=N/O)/C(Cc1ccc(O)c(Br)c1)=N/O [PSAMMAPLIN A]
P388
  IC50: 0.3 µg/mL (≈ 0.452 µM)

## CCCC(=O)[O-].[Na+] [SODIUM BUTYRATE]
MDA-MB-231
  IC50: 600 µM
BT-20
  IC50: 1400 µM
Histone deacetylase 2 [12]
  IC50: 12 µM
Histone deacetylase 1 [13]
  IC50: 16 µM
MCF7 [9]
  IC50: 500 µM
T47D [14]
  IC50: 700 µM
Histone deacetylase 8
  IC50: 15 µM
Histone deacetylase 3
  IC50: 9 µM

## CC(/C=C/C(=O)NO)=C\[C@@H](C)C(=O)c1ccc(N(C)C)cc1 [TRICHOSTATIN]
MCF7 [15]
  IC50: 0.0277 µM
BT-474
  IC50: 0.0333 µM
T47D [16]
  IC50: 0.0264 µM

## CCCC(CCC)C(=O)O [VALPROIC ACID]
Histone deacetylase 1 [17]
  IC50: 400 µM
Histone deacetylase 4 [18]
  IC50: 1000 µM
[19]
  IC50: 1000 µM
MCF7 [9]
  IC50: 230 µM
[20]
  t1/2: 7 h
Histone deacetylase 5
  IC50: 1000 µM
